Assay results taken from patent publication US20130274247A1 (priority 2012, published 2013).
Like-named read-outs stand apart in the source and are kept apart here.

Legend:
CKD cats = test: Effect of mirtazapine on weight, appetite, activity and vomiting in CKD cats; format: in vivo, cat; conditions: 1.88 mg every other day for three weeks
From the text: FIG. 1. […] FIG. 2. […] FIG. 3. […] FIG. 4.

young normal cats = conditions: cited from earlier work
[1] = humans; cited from earlier work
in vivo = test: in vivo; parameters: species or system cat; conditions: for AUC(0-inf) / CL/F / Cmax / Tmax / Vd/F: both sexes
From the text: In this prospective pharmacokinetic study, 6 client-owned stable CKD cats, 2 each from International Renal Interest Society (IRIS) stages II, III and IV, […] and 6 age-matched (within 6 months) healthy geriatric control cats (AMC) were enrolled by stratified convenience sampling. There were 4 spayed females and 2 neutered males in the CKD group and 3 spayed females and 3 neutered males in the AMC group. […] Diagnostic tests required before enrollment included a minimum database consisting of serum biochemistry profile, CBC, urinalysis, urine culture, blood pressure, and serum total thyroxine concentration. […] Exclusion criteria included other systemic illnesses, complications of CKD such as hypertension, pyelonephritis or ureteral obstruction, or decompensation of CKD requiring hospitalization and IV fluid therapy. The project was approved by the Institutional Animal Care and Use Committee at Colorado State University, and all owners gave written informed consent before participation. […] Samples were centrifuged within 10 minutes of collection and serum was harvested and stored at —80° C. until analysis. […] Pharmacokinetic analysis was performed using a non-compartmental method. Area under the curve to infinity (AUC∞), disappearance half-life (t½^λ), time to maximum serum concentration (Tmax), and maximum serum concentration (Cmax) were calculated. […] The terminal elimination rate was used for estimating the accumulation factor as the applicable kel, and the dosing interval (T) was set at 24 or 48 hours. Comparison of pharmacokinetic parameters between the CKD and AMC cat groups was performed using a Mann-Whitney U-test. Prism software© was used for all analyses.

cats = conditions: cited from earlier work
[2] = Stability of compounded 1.88 mg mirtazapine capsules (LC/MS/MS); format: physicochemical; conditions: compounded 1.88 mg capsules
From the text: The method used is guaranteed to produce accurate compounding to within 10% of the target dose.

[3] = cited from earlier work

CN1CCN2c3ncccc3Cc3ccccc3C2C1 (stereo not shown) [mirtazapine]
Effect on weight (CKD cats; p=0.002): statistically significant increase | Effect on activity (CKD cats; p=0.02): statistically significant increase | Effect on appetite score (CKD cats; p=0.02): statistically significant increase | Effect on vomiting (CKD cats; p=0.047): statistically significant decrease | food consumption as compared to placebo (young normal cats; 1.88 mg/cat): increased food consumption | food consumption as compared to placebo (young normal cats; 3.75 mg/cat): increased food consumption | appetite stimulation (young normal cats; dose of 1.88 mg): significantly stimulates appetite | AUC in young men compared to women [1]: lower | difference in AUC∞ between AMC cats and CKD cats (in vivo): statistically significant difference | AUC(0-inf) (in vivo; po, 1.88 mg, Mean ± SD): 590 ± 185 ng·h/mL | AUC(0-inf) (in vivo; po, 1.88 mg, Median): 561 ng·h/mL | CL/F (in vivo; po, 1.88 mg, Mean ± SD): 13.2 mL/min/kg | CL/F (in vivo; po, 1.88 mg, Median): 12.2 mL/min/kg | Cmax (in vivo; po, 1.88 mg, Mean ± SD): 79.6 ± 21.7 ng/mL | Cmax (in vivo; po, 1.88 mg, Median): 83.6 ng/mL | Tmax (in vivo; po, 1.88 mg, Mean ± SD): 2 ± 1.5 h | Tmax (in vivo; po, 1.88 mg, Median): 1 h | Vd/F (in vivo; po, 1.88 mg, Mean ± SD): 13.9 ± 3.2 L | Vd/F (in vivo; po, 1.88 mg, Median): 14.4 L | CL/F, Mean ± SD (in vivo; both, po, 1.88 mg): 10.2 mL/min/kg | CL/F, Median (in vivo; both, po, 1.88 mg): 10 mL/min/kg | Cmax, Mean ± SD (in vivo; both, po, 1.88 mg): 110.6 ± 30.8 ng/mL | Cmax, Median (in vivo; both, po, 1.88 mg): 109.5 ng/mL | AUC∞, Mean ± SD (in vivo; po, 1.88 mg): 866.5 ± 257.9 ng·h/mL | AUC∞, Median (in vivo; po, 1.88 mg): 828.4 ng·h/mL | Vd/F, Mean ± SD (in vivo; po, 1.88 mg): 13.6 ± 2.0 L | Vd/F, Median (in vivo; po, 1.88 mg): 13.4 L | other reported adverse effects (hyperexcitability, muscle tremors) (cats): mild and dose dependent | stability as formulated [2]: at least 6 months | mean AUC ([3]; normal cats, previously reported): 397 ng/mL/h | mean CL/F ([3]; young healthy cats): 18.3 mL/min/kg
